# Assay results published in patent publication US6677373B2, “Polymorphic B form of 3-(cyclopropylmethoxy)-4-[4-(methylsulfonyl)phenyl]-5,5-dimethyl-5H-furan-2-one” (Merial Limited, priority 1999, dated 2004).
# Tests used:
# Type in all cases: physicochemical
# [1] = Solubility in methyltertiobutylether on recrystallization; settings: solid at 6.3% weight in methyltertiobutylether
# Source text: Recrystallization of polymorph A for purification purposes leaded to solubility problems in methyltertiobutylether.
# [2] = Carr Index (compressibility index, flowability) of unmilled product
# Source text: After crystallization and before micronization, the Carr Index of B form is lower than 10 (in %). The Carr Index CI is defined as: [formula] where P is the packed bulk density (g cm^−3), L is the loose bulk density (g cm^−3). CI is also know as a compressibility index. A low figure for CI corresponds to a high degree of flowability. The Carr Index way be calculated from Mercury Intrusion Porosimetry or measured by Tap—Tap.
# [3] = Thermodynamic stability of the polymorphs, DSC (Differential Scanning Calorimetry); settings: for thermodynamic stability: compared with Polymorph A, monotropic system according to Burger's rule
# Experimental: an endothermal peak around 90-100° C. due to melting of A form,
# an exothermal peak corresponding to the transition A→B,
# an endothermal peak around 120° C. due to melting of B form,
# a very small exothermal peak corresponding to the transition A→B,
# an endothermal peak due to melting of B form.
# Therefore, the transition A→B is under kinetic control as usual in case of polymorphism. The transition from A to B may also be followed by X-Ray under heating (FIG. 7).
compound,measurement,setting,value
"CC1(C)OC(=O)C(OCC2CC2)=C1c1ccc(S(C)(=O)=O)cc1 [3-(cyclopropylmethoxy)-4-(4-methylsulfonyl)phenyl-5,5-dimethylfuranone]",solubility in methyltertiobutylether,[1],could no longer be solubilised
"CC1(C)OC(=O)C(OCC2CC2)=C1c1ccc(S(C)(=O)=O)cc1 [Polymorph A, 3-(cyclopropylmethoxy)-4-[4-(methylsulfonyl)phenyl]-5,5-dimethyl-5H-furan-2-one]",Carr Index,"[2]; unmilled product, crystallisation process: Lab scale",26 to 27%
same,Carr Index,"[2]; unmilled product, crystallisation process: Pilot scale",29 to 33%
same,behaviour when heated (DSC),"[3]; depending on the heating rate (40° C./mn, 2° C./mn)",transforms to form B
"CC1(C)OC(=O)C(OCC2CC2)=C1c1ccc(S(C)(=O)=O)cc1 [Polymorph B, 3-(cyclopropylmethoxy)-4-[4-(methylsulfonyl)phenyl]-5,5-dimethyl-5H-furan-2-one]",Carr Index,[2]; after crystallization and before micronization,lower than 10%
same,flow characteristics,[2]; compared with Polymorph A,better flow characteristics than Polymorph A
same,Carr Index,"[2]; unmilled product, Recrystallisation in MTBE, Lab scale",2 to 3%
same,Carr Index,"[2]; unmilled product, Recrystallisation in MTBE, Pilot scale",2 to 4%
same,thermodynamic stability,[3],thermodynamically more stable than Polymorph A
same,thermodynamic stability,[3]; listed as B form,the most stable form
